Here are results for 13 compounds from patent US12617783B2, “Heterocyclic GLP-1R agonists” (BIOMEA FUSION, INC., priority 2024, dated 2026).

pEC50: −log10 of the molar value. A value given as a limit tells only on which side of the number the result lay.

The target of this experiment is T1, human GLP-1R (Homo sapiens, UniProt P43220).
T1 construct: host or cells: HEK293
T1 sequence (P43220 24-463): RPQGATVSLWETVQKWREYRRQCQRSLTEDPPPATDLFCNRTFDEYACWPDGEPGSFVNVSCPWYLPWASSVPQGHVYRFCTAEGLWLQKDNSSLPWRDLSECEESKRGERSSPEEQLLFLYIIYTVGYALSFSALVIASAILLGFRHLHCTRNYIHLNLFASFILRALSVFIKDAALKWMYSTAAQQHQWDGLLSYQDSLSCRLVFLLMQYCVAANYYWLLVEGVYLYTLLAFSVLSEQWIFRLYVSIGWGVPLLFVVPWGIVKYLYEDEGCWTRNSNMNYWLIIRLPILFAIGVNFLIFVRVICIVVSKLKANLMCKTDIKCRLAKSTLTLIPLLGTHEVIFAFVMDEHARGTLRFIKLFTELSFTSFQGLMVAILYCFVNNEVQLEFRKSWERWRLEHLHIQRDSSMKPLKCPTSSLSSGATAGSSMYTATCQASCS
In words: GLP-1R cAMP assay (Example B1a, HTRF, 30 min at room temperature). It counts as cell-based. As to conditions: cAMP accumulation in HEK293 expressing human GLP-1R, no BETP, 30 min room temperature (Method B1a, compounds ID 1-609), Table 1; read-out: EC50. The method in brief:
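Competitive HTRF read-out of cAMP after 30 min room-temperature stimulation, BETP absent, of human GLP-1R-HEK293 cells (1,000/well) in HEPES buffer with 500 μM IBMX and 0.1% BSA. Activation normalised to GLP-1(7-37) positive control. EC50 from 4-parameter non-linear regression.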
Take `Cc1cc(-n2nc3c(c2-n2ccn(-c4cc(F)c5c(cnn5C)c4F)c2=O)[C@@H]2CC[C@H](C3)N2C(=O)c2cc3cc([C@H]4CCOC(C)(C)C4)ncc3n2[C@@]2(c3noc(=O)[nH]3)C[C@@H]2C)cc(C)c1F` [Compound 236, 3-[(1S,2S)-1-[2-[(1S,8R)-3-[3-(4,7-difluoro-1-methyl-indazol-5-yl)-2-oxo-imidazol-1-yl]-4-(4-fluoro-3,5-dimethyl-phenyl)-4,5,11-triazatricyclo[6.2.1.02,6]undeca-2,5-diene-11-carbonyl]-5-[(4S)-2,2-dimethyltetrahydropyran-4-yl]pyrrolo[2,3-c]pyridin-1-yl]-2-methyl-cyclopropyl]-4H-1,2,4-oxadiazol-5-one]: the negative-log EC50 (pEC50) (commonly the EC50 on a negative log10 scale, so that one unit is a factor of ten) was 6.11.
`Cc1cc(-n2nc3c(c2-n2ccn(-c4ccc5c(cnn5C)c4F)c2=O)[C@@H]2CC[C@H](C3)N2C(=O)c2cc3c(=O)n([C@H]4CCOC(C)(C)C4)ccc3n2[C@@]2(c3noc(=O)[nH]3)C[C@@H]2C)cc(C)c1F` [Compound 238, 3-[(1S,2S)-1-[5-[(4S)-2,2-dimethyltetrahydropyran-4-yl]-2-[(1S,8R)-4-(4-fluoro-3,5-dimethyl-phenyl)-3-[3-(4-fluoro-1-methyl-indazol-5-yl)-2-oxo-imidazol-1-yl]-4,5,11-triazatricyclo[6.2.1.02,6]undeca-2,5-diene-11-carbonyl]-4-oxo-pyrrolo[3,2-c]pyridin-1-yl]-2-methyl-cyclopropyl]-4H-1,2,4-oxadiazol-5-one]: the negative-log EC50 (pEC50) is below 5.00.
`Cc1cc(-n2nc3c(c2-n2ccn(-c4ccc5c(cnn5C)c4F)c2=O)[C@@H]2CC[C@H](C3)N2C(=O)c2cc3c(=O)n([C@@H]4CCOC(C)(C)C4)ccc3n2[C@@]2(c3noc(=O)[nH]3)C[C@@H]2C)cc(C)c1F` [Compound 239, 3-[(1S,2S)-1-[5-[(4R)-2,2-dimethyltetrahydropyran-4-yl]-2-[(1S,8R)-4-(4-fluoro-3,5-dimethyl-phenyl)-3-[3-(4-fluoro-1-methyl-indazol-5-yl)-2-oxo-imidazol-1-yl]-4,5,11-triazatricyclo[6.2.1.02,6]undeca-2,5-diene-11-carbonyl]-4-oxo-pyrrolo[3,2-c]pyridin-1-yl]-2-methyl-cyclopropyl]-4H-1,2,4-oxadiazol-5-one]: the negative-log EC50 (pEC50) is below 5.00.
Regarding `Cc1cc(-n2nc3c(c2-n2ccn(-c4ccc5c(cnn5C)c4F)c2=O)[C@@H]2CC[C@H](C3)N2C(=O)c2cc3cc([C@H]4CCOC(C)(C)C4)ccc3n2[C@@]2(C(=O)N(C)C)C[C@@H]2C)cc(C)c1F` [Compound 240, cis-(1S,2S)-1-[5-[(4S)-2,2-dimethyltetrahydropyran-4-yl]-2-[(1S,8R)-4-(4-fluoro-3,5-dimethyl-phenyl)-3-[3-(4-fluoro-1-methyl-indazol-5-yl)-2-oxo-imidazol-1-yl]-4,5,11-triazatricyclo[6.2.1.02,6]undeca-2,5-diene-11-carbonyl]indol-1-yl]-N,N,2-trimethyl-cyclopropanecarboxamide], the pEC50 was 6.21.
As for `Cc1cc(-n2nc3c(c2-n2ccn(-c4ccc5c(cnn5C)c4F)c2=O)[C@@H]2CC[C@H](C3)N2C(=O)c2cc3cc([C@H]4CCOC(C)(C)C4)ccc3n2[C@@]2(CNC(=O)CO)C[C@@H]2C)cc(C)c1F` [Compound 241, N-[[(1S,2S)-1-[5-[(4S)-2,2-dimethyltetrahydropyran-4-yl]-2-[(1S,8R)-4-(4-fluoro-3,5-dimethyl-phenyl)-3-[3-(4-fluoro-1-methyl-indazol-5-yl)-2-oxo-imidazol-1-yl]-4,5,11-triazatricyclo[6.2.1.02,6]undeca-2,5-diene-11-carbonyl]indol-1-yl]-2-methyl-cyclopropyl]methyl]-2-hydroxy-acetamide], the negative logarithm of the EC50 (pEC50) was 6.19.
For `Cc1cc(-n2nc3c(c2-n2ccn(-c4cc(F)c5c(cnn5C)c4F)c2=O)[C@@H]2COC[C@H](C3)N2C(=O)c2cc3cc(C4CCOC5(CC5)C4)ccc3n2[C@@]2(c3noc(=O)[nH]3)C[C@@H]2C)cc(C)c1F` (stereo partly drawn) [Compound 242, 3-((1S,2S)-1-(2-((4R,8S)-3-(3-(4,7-difluoro-1-methyl-1H-indazol-5-yl)-2-oxo-2,3-dihydro-1H-imidazol-1-yl)-2-(4-fluoro-3,5-dimethylphenyl)-2,4,5,7,8,9-hexahydro-4,8-epiminooxocino [5,4-c]pyrazole-10-carbonyl)-5-(4-oxaspiro[2.5]octan-7-yl)-1H-indol-1-yl)-2-methylcyclopropyl)-1,2,4-oxadiazol-5 (4H)-one], the pEC50 is 6.77.
With `CC(=O)NC[C@]1(n2c(C(=O)N3[C@@H]4CC[C@H]3c3c(nn(-c5cc(C)c(F)c(C)c5)c3-n3ccn(-c5ccc6c(cnn6C)c5F)c3=O)C4)cc3cc([C@H]4CCOC(C)(C)C4)ccc32)C[C@@H]1C` [Compound 243, N-[[(1S,2S)-1-[5-[(4S)-2,2-dimethyltetrahydropyran-4-yl]-2-[(1S,8R)-4-(4-fluoro-3,5-dimethyl-phenyl)-3-[3-(4-fluoro-1-methyl-indazol-5-yl)-2-oxo-imidazol-1-yl]-4,5,11-triazatricyclo[6.2.1.02,6]undeca-2,5-diene-11-carbonyl]indol-1-yl]-2-methyl-cyclopropyl]methyl]acetamide], the negative-log EC50 (pEC50) is 6.12.
Consider `CNC(=O)[C@]1(n2c(C(=O)N3[C@@H]4CC[C@H]3c3c(nn(-c5cc(C)c(F)c(C)c5)c3-n3ccn(-c5ccc6c(cnn6C)c5F)c3=O)C4)cc3cc([C@H]4CCOC(C)(C)C4)ccc32)C[C@@H]1C` [Compound 244, cis-(1S,2S)-1-[5-[(4S)-2,2-dimethyltetrahydropyran-4-yl]-2-[(1S,8R)-4-(4-fluoro-3,5-dimethyl-phenyl)-3-[3-(4-fluoro-1-methyl-indazol-5-yl)-2-oxo-imidazol-1-yl]-4,5,11-triazatricyclo[6.2.1.02,6]undeca-2,5-diene-11-carbonyl]indol-1-yl]-N,2-dimethyl-cyclopropanecarboxamide], for which the pEC50 is 6.41.
Then `Cc1cc(-n2nc3c(c2-n2ccn(-c4ccc5c(cnn5C)c4F)c2=O)[C@@H]2CC[C@H](C3)N2C(=O)c2cc3sc(C4CCOC(C)(C)C4)nc3n2[C@@]2(c3noc(=O)[nH]3)C[C@@H]2C)cc(C)c1F` (stereo partly drawn) [Compound 245, 3-[(1S,2S)-1-[2-(2,2-dimethyltetrahydropyran-4-yl)-5-[(1S,8R)-4-(4-fluoro-3,5-dimethyl-phenyl)-3-[3-(4-fluoro-1-methyl-indazol-5-yl)-2-oxo-imidazol-1-yl]-4,5,11-triazatricyclo[6.2.1.02,6]undeca-2,5-diene-11-carbonyl]pyrrolo[2,3-d]thiazol-4-yl]-2-methyl-cyclopropyl]-4H-1,2,4-oxadiazol-5-one], with 5.29.
On to `Cc1cc(-n2nc3c(c2-n2ccn(-c4ccc5c(cnn5C)c4F)c2=O)[C@@H]2CC[C@H](C3)N2C(=O)c2cc3cc([C@H]4CCOC(C)(C)C4)ccc3n2[C@@]2(C(=O)NC3CC3)C[C@@H]2C)cc(C)c1F` [Compound 246, cis-(1S,2S)-N-cyclopropyl-1-[5-[(4S)-2,2-dimethyltetrahydropyran-4-yl]-2-[(1S,8R)-4-(4-fluoro-3,5-dimethyl-phenyl)-3-[3-(4-fluoro-1-methyl-indazol-5-yl)-2-oxo-imidazol-1-yl]-4,5,11-triazatricyclo[6.2.1.02,6]undeca-2,5-diene-11-carbonyl]indol-1-yl]-2-methyl-cyclopropanecarboxamide], for which the pEC50 was 6.16.
Regarding `Cc1cc(-n2nc3c(c2-n2ccn(-c4ccc5c(cnn5C)c4)c2=O)[C@@H]2CC[C@H](C3)N2C(=O)c2cc3cc([C@H]4CCOC(C)(C)C4)ccc3n2[C@@]2(c3noc(=O)[nH]3)C[C@@H]2C)cc(C)c1F` [Compound 302, 3-((1S,2S)-1-(5-((S)-2,2-dimethyltetrahydro-2H-pyran-4-yl)-2-((4S,7R)-2-(4-fluoro-3,5-dimethylphenyl)-3-(3-(1-methyl-1H-indazol-5-yl)-2-oxo-2,3-dihydro-1H-imidazol-1-yl)-2,4,5,6,7,8-hexahydro-4,7-epiminocyclohepta [c]pyrazole-9-carbonyl)-1H-indol-1-yl)-2-methylcyclopropyl)-1,2,4-oxadiazol-5 (4H)-one], the negative logarithm of the EC50 (pEC50) is 7.28.
For the compound `Cc1cc(-n2nc3c(c2-n2ccn(-c4ccc5c(cnn5C)c4C)c2=O)[C@@H]2CC[C@H](C3)N2C(=O)c2cc3cc([C@H]4CCOC(C)(C)C4)ccc3n2[C@@]2(c3noc(=O)[nH]3)C[C@@H]2C)cc(C)c1F` [Compound 305, 3-((1S,2S)-1-(2-((45,7R)-3-(3-(1,4-dimethyl-1H-indazol-5-yl)-2-oxo-2,3-dihydro-1H-imidazol-1-yl)-2-(4-fluoro-3,5-dimethylphenyl)-2,4,5,6,7,8-hexahydro-4,7-epiminocyclohepta [c]pyrazole-9-carbonyl)-5-((S)-2,2-dimethyltetrahydro-2H-pyran-4-yl)-1H-indol-1-yl)-2-methylcyclopropyl)-1,2,4-oxadiazol-5 (4H)-one], the negative logarithm of the EC50 (pEC50) was 6.69.
Turning to `Cc1cc(-n2nc3c(c2-n2ccn(-c4ccc5c(cnn5C)c4F)c2=O)[C@@H]2CC[C@H](C3)N2C(=O)c2cc3sc([C@H]4CCOC(C)(C)C4)nc3n2[C@@]2(c3noc(=O)[nH]3)C[C@@H]2C)cc(C)c1F` [Compound 306, 3-[(1S,2S)-1-[2-[(4S)-2,2-dimethyltetrahydropyran-4-yl]-5-[(1S,8R)-4-(4-fluoro-3,5-dimethyl-phenyl)-3-[3-(4-fluoro-1-methyl-indazol-5-yl)-2-oxo-imidazol-1-yl]-4,5,11-triazatricyclo[6.2.1.02,6]undeca-2,5-diene-11-carbonyl]pyrrolo[2,3-d]thiazol-4-yl]-2-methyl-cyclopropyl]-4H-1,2,4-oxadiazol-5-one], the negative logarithm of the EC50 (pEC50) is 5.61.
